For data set [1], the system named is HepG2 cells. Put plainly: Measurement of gluconeogenesis inhibitory ability. In kind it is cell-based. As to conditions: for Gluconeogenesis inhibition (100 μM) aver. / activity at 100 µM: 100 μM compound, 24 hours, HepG2 cells, content of glucose formed from 14C-lactate, lower value = stronger inhibition; for activity at 100 µM: Homo sapiens, HepG2, 24 h, read-out: Gluconeogenesis inhibition (100 μM) aver.

For data set [2], the system named is HepG2 cells. The data set can be described thus: Measurement of triglyceride synthesis inhibitory ability. In kind it is cell-based. The note with it: 24 hours, HepG2 cells, content of triglyceride formed, lower value = stronger inhibition; for Triglyceride (100 μM) aver.: 100 μM compound; for Triglyceride (500 μM) aver.: 500 μM compound.
The test system of the next data set is C2C12 cells. The data set can be described thus: Measurement of glucose absorption ability. As to conditions: for Glucose absorption (100 μM) aver.: 100 μM compound with 1 μM insulin, 24 hours, differentiated C2C12 cells, 3H-deoxy-glucose, higher value = stronger, more than 200% counts as glucose absorption ability. In kind it is cell-based. The method, then: 2 mM metformin was used as a comparative compound for each of the plates (control group).
C2C12 cells (ATCC: American Type Culture Collection), a muscle cell model, were induced to differentiate into muscle cells in 2% bovine fetal serum-containing media (DMEM (Gibco), FBS (Gibco)) for 6 days. The C2C12 cells which differentiated into muscle cells were transferred to serum-free low glucose media (DMEM (Gibco), FBS (Gibco)), treated with 100 μM of each of the compounds, and then cultured with 1 μM of insulin for 24 hours. After cultivation, the cells were treated with 1 μCi ^3H-deoxy-glucose (Amersham Pharmacia) and 10 μM deoxy-glucose (Sigma) at 37° C. for 15 minutes. The media were removed therefrom, and the cells were washed twice with PBS (phosphate buffered saline). The washed cells were treated with 0.1N NaOH and neutralized with 1N HCl. The content of glucose absorbed into the cells was measured with a liquid scintillation counter.
A higher measurement value means a stronger ability to reduce insulin resistance.

The subject of data set [3] is HepG2 cells. Put plainly: Measurement of cholesterol synthesis inhibitory ability. In kind it is cell-based. The note with it: 24 hours, HepG2 cells, content of cholesterol formed, lower value = stronger inhibition; for Cholesterol (100 μM) aver.: 100 μM compound; for Cholesterol (500 μM) aver.: 500 μM compound.
Where [4] appears, read: 100 μM compound versus 2 mM metformin.

Counter-ions that a name gives are not always drawn.

On to `N=C(N)NC(=Nc1cccc2ccccc12)NCc1ccc2c(c1)OCO2` (as salt: hydrochloride) [Example 3, N1-benzo[1,3]dioxol-5-ylmethyl-N2-(1-naphthyl)biguanide hydrochloride], for which the melting point (usually the temperature of the solid-liquid transition) lay in the range of 196.1 to 198.6 °C.

For “N1-benzo[1,3]dioxol-5-ylmethyl-N2-(1-adamantyl)biguanide hydrochloride (isomer) [Example 29]”, in the data set with HepG2 cells [1] (100 µM), the “Gluconeogenesis inhibition (100 μM) aver.” value is 92.07. In the data set on HepG2 cells [2], the “Triglyceride (100 μM) aver.” value came out at 101.52 and the “Triglyceride (500 μM) aver.” value stood at 81.39. Also, in the data set on C2C12 cells, the “Glucose absorption (100 μM) aver.” value was 140.2%. Also, in the data set on HepG2 cells [3], the “Cholesterol (100 μM) aver.” value is on record as 43.03 and the “Cholesterol (500 μM) aver.” value was found to be 67.50.

`CCc1cc(Cl)ccc1NC(=N)NC(=N)NCc1ccc2c(c1)OCO2.Cl` [Example 8, N1-benzo[1,3]dioxol-5-ylmethyl-N2-(2-ethyl-4-chloro)phenyl biguanide hydrochloride]: the “Gluconeogenesis inhibition (100 μM) aver.” value with HepG2 cells [1] stood at 96.20. Moreover, in the data set with HepG2 cells [2], the “Triglyceride (100 μM) aver.” value came to 3.35 and the “Triglyceride (500 μM) aver.” value worked out at 19.3. Further, in the data set with C2C12 cells, the “Glucose absorption (100 μM) aver.” value was found to be 14.21%. Moreover, in the data set on HepG2 cells [3], the “Cholesterol (100 μM) aver.” value is −1.48 and the “Cholesterol (500 μM) aver.” value is on record as 28.1.

As to `CN=C(NCc1ccc2c(c1)OCO2)NC(=N)N.Cl` [Example 17, N1-benzo[1,3]dioxol-5-ylmethyl-N2-methyl biguanide hydrochloride], the melting point was 143.9 to 158.1 °C. The activity at 100 µM in the data set with HepG2 cells [1] is 90.2%. In the data set on HepG2 cells [2], the “Triglyceride (100 μM) aver.” value stood at 96.55 and the “Triglyceride (500 μM) aver.” value is 53.45. Further, in the data set with HepG2 cells [3], the “Cholesterol (100 μM) aver.” value worked out at 55.85 and the “Cholesterol (500 μM) aver.” value is 12.19.

With `Cl.N=C(N)NC(=NCc1ccccc1)NCc1ccc2c(c1)OCO2` [Example 5, N1-benzo[1,3]dioxol-5-ylmethyl-N2-benzyl biguanide hydrochloride], in the data set on HepG2 cells [1], the activity at 100 µM came to 108%. Besides, in the data set with HepG2 cells [2], the “Triglyceride (100 μM) aver.” value came to 102.8 and the “Triglyceride (500 μM) aver.” value is on record as 15.7. In the data set with C2C12 cells (setting [4]), the “glucose absorption effect better than that of the control group” value is “about 220 times”. In the data set with HepG2 cells [3], the “Cholesterol (100 μM) aver.” value is on record as 30.3 and the “Cholesterol (500 μM) aver.” value is given as −8.28.

Turning to `CC(C)(C)CC(C)(C)N=C(NCc1ccc2c(c1)OCO2)NC(=N)N.Cl` [Example 9, N1-benzo[1,3]dioxol-5-ylmethyl-N2-t-octyl biguanide hydrochloride], the melting point fell in the range of 141.7 to 155.4 °C. In addition, the “effect in inhibiting gluconeogenesis better than that of the control group” value in the data set with HepG2 cells [1] (setting [4]) was “at least 20 times”. The activity at 100 µM in the data set with HepG2 cells [1] came to 47.5%. For the same compound, in the data set with HepG2 cells [2], the “Triglyceride (100 μM) aver.” value was found to be 82.6 and the “Triglyceride (500 μM) aver.” value is −1.23. For the same compound, in the data set on HepG2 cells [3], the “Cholesterol (100 μM) aver.” value came out at 37.3 and the “Cholesterol (500 μM) aver.” value was −7.10.

Values taken from patent publication US8642647B2, “N1-benzo[1,3]dioxol-5-ylmethyl-N2-substituted biguanide derivative, preparation method thereof, and pharmaceutical composition containing same” (Hanall Biopharma Co., Ltd., priority 2008, dated 2014).
